In patent US8536351B2, “2-aryl-5-heterocyclyl-cyclohexane-1,3,dione compounds and their use as herbicides” (Syngenta Crop Protection LLC, priority 2007, dated 2013):

Columns and labels:
Format in all cases: in vivo
Avena fatua (AVEFA) [1] = experiment: Pre-emergence activity, glasshouse pot test (100=total damage to plant; 0=no damage to plant); details: rate 500 g/ha, evaluated 19, 20 or 21 days after spraying
Procedure: (§1) Monocotyledonous and dicotyledonous test plants were sown in standard soil in pots. After cultivation for one day (pre-emergence) or after 10 days cultivation (post-emergence) under controlled conditions in a glasshouse, the plants were sprayed with an aqueous spray solution derived from the formulation of the technical active ingredient in 0.6 ml acetone and 45 ml formulation solution containing 10.6% Emulsogen EL (Registry number 61791-12-6), 42.2% N-methyl pyrrolidone, 42.2% dipropylene glycol monomethyl ether (Registry number 34590-94-8) and 0.2% X-77 (Registry number 11097-66-8). The test plants were then grown in a greenhouse under optimum conditions until, 14 or 15 days later for post-emergence and 19, 20 or 21 days for pre-emergence, the test was evaluated (100=total damage to plant; 0=no damage to plant). Alopecurus myosuroides (ALOMY), Avena fatua (AVEFA), Lolium perenne (LOLPE), Setaria faberi (SETFA), Digitaria sanguinalis (DIGSA), Echinochloa crus-galli (ECHCG) Pre-Emergence Activity

Setaria faberi (SETFA) [2] = experiment: as above; details: rate 500 g/ha, evaluated 19, 20 or 21 days after spraying
Procedure: as §1

Lolium perenne (LOLPE) [3] = experiment: as above; details: rate 500 g/ha, evaluated 19, 20 or 21 days after spraying
Procedure: as §1

[4] = test system: Alopecurus myosuroides (ALOMY); experiment: as above; details: rate 500 g/ha, evaluated 19, 20 or 21 days after spraying
Procedure: as §1

[5] = test system: Digitaria sanguinalis (DIGSA); experiment: as above; details: rate 500 g/ha, evaluated 19, 20 or 21 days after spraying
Procedure: as §1

[6] = test system: Echinochloa crus-galli (ECHCG); experiment: as above; details: rate 500 g/ha, evaluated 19, 20 or 21 days after spraying
Procedure: as §1

Avena fatua (AVEFA) [7] = experiment: Post-emergence activity, glasshouse pot test (100=total damage to plant; 0=no damage to plant); details: 336 h, evaluated 14 or 15 days after spraying; for pest or weed control at 500 g/ha: rate 500 g/ha
Procedure: as §1, with “Post-Emergence” for “Pre-Emergence”

Setaria faberi (SETFA) [8] = experiment: as above; details: evaluated 14 or 15 days after spraying; for pest or weed control at 500 g/ha: rate 500 g/ha
Procedure: as §1, with “Post-Emergence” for “Pre-Emergence”

Lolium perenne (LOLPE) [9] = experiment: as above; details: 336 h, evaluated 14 or 15 days after spraying; for pest or weed control at 500 g/ha: rate 500 g/ha
Procedure: as §1, with “Post-Emergence” for “Pre-Emergence”

[10] = test system: Alopecurus myosuroides (ALOMY); experiment: as above; details: 336 h, evaluated 14 or 15 days after spraying; for pest or weed control at 500 g/ha: rate 500 g/ha
Procedure: as §1, with “Post-Emergence” for “Pre-Emergence”

[11] = test system: Digitaria sanguinalis (DIGSA); experiment: as above; details: evaluated 14 or 15 days after spraying; for pest or weed control at 500 g/ha: rate 500 g/ha
Procedure: as §1, with “Post-Emergence” for “Pre-Emergence”

[12] = test system: Echinochloa crus-galli (ECHCG); experiment: as above; details: evaluated 14 or 15 days after spraying; for pest or weed control at 500 g/ha: rate 500 g/ha
Procedure: as §1, with “Post-Emergence” for “Pre-Emergence”

Structure (SMILES) | pest or weed control at 500 g/ha (Avena fatua (AVEFA) [1]) [%] | pest or weed control at 500 g/ha (Setaria faberi (SETFA) [2]) [%] | pest or weed control at 500 g/ha (Lolium perenne (LOLPE) [3]) [%] | pest or weed control at 500 g/ha [4] [%] | pest or weed control at 500 g/ha [5] [%] | pest or weed control at 500 g/ha [6] [%] | pest or weed control at 500 g/ha (Avena fatua (AVEFA) [7]) [%] | pest or weed control at 500 g/ha (Setaria faberi (SETFA) [8]) [%] | pest or weed control at 500 g/ha (Lolium perenne (LOLPE) [9]) [%] | pest or weed control at 500 g/ha [10] [%] | pest or weed control at 500 g/ha [11] [%] | pest or weed control at 500 g/ha [12] [%] | pest or weed control at 125 g/ha (Avena fatua (AVEFA) [7]; rate 125 g/ha) [%] | pest or weed control at 125 g/ha (Setaria faberi (SETFA) [8]; rate 125 g/ha) [%] | pest or weed control at 125 g/ha (Lolium perenne (LOLPE) [9]; rate 125 g/ha) [%] | pest or weed control at 125 g/ha ([10]; rate 125 g/ha) [%] | pest or weed control at 125 g/ha ([11]; rate 125 g/ha) [%] | pest or weed control at 125 g/ha ([12]; rate 125 g/ha) [%]
CCc1cc(C)cc(CC)c1C1=C(O)CC(C2CCS(=O)(=O)CC2)CC1=O (stereo not drawn) [Compound T20] | 100 | 100 | 100 | 100 | 100 | 100 | 70 | 90 | 60 | 80 | 100 | 100 | – | – | – | – | – | –
CCc1cc(C)cc(CC)c1C1=C(O)CC(C2CC[S+]([O-])CC2)CC1=O (stereo not drawn) [Compound T22] | 90 | – | 90 | 90 | – | 70 | 90 | 100 | 80 | 90 | 100 | 80 | – | – | – | – | – | –
CCc1cc(C)cc(CC)c1C1=C(O)CC(C2CCOC2)CC1=O (stereo not drawn) [Compound T4, 2-(2,6-diethyl-4-methylphenyl)-5-(tetrahydrofuran-3-yl)cyclohexane-1,3-dione] | 70 | 100 | 100 | 100 | 90 | 100 | 100 | 100 | 100 | 100 | 100 | 80 | – | – | – | – | – | –
CCc1cc(C)cc(C)c1C1=C(O)CC(C2CCOCC2)CC1=O (stereo not drawn) [Compound T12] | 90 | 100 | 100 | 90 | 100 | 100 | 90 | 100 | 90 | 90 | 100 | 100 | – | – | – | – | – | –
CCc1cc(C)cc(CC)c1C1=C(OC(=O)C(C)(C)C)CC(C2CCS(=O)(=O)CC2)CC1=O (stereo not drawn) [Compound P3] | 80 | 90 | 90 | 90 | 100 | 100 | – | – | – | – | – | – | 30 | 60 | 0 | 70 | 70 | 60
CCc1ccc(-c2ccc(Cl)cc2)cc1C1=C(O)CC(C2CCOC2)CC1=O (stereo not drawn) [Compound T6] | 20 | 100 | 100 | 90 | 100 | 100 | 90 | 100 | 100 | 100 | 100 | 100 | – | – | – | – | – | –
Cc1cc(C)c(C2=C(O)CC(C3CCCSC3)CC2=O)c(C)c1 (stereo not drawn) [Compound T14] | 20 | 90 | 70 | 60 | 90 | 70 | 30 | 90 | 60 | 70 | 90 | 80 | – | – | – | – | – | –
CCc1cc(C)cc(CC)c1C1=C(O)CC(C2CCSCC2)CC1=O (stereo not drawn) [Compound T18] | 100 | 100 | 100 | 100 | 100 | 100 | 100 | 100 | 70 | 90 | 100 | 70 | – | – | – | – | – | –
CCc1cc(C)cc(CC)c1C1=C(O)CC(C2CCOCC2)CC1=O (stereo not drawn) [Compound T2, 2-(2,6-diethyl-4-methylphenyl)-5-(tetrahydropyran-4-yl)cyclohexane-1,3-dione] | 100 | 100 | 100 | 100 | 100 | 90 | 100 | 90 | 90 | 90 | 100 | 100 | – | – | – | – | – | –
Cc1ccc(-c2ccc(Cl)cc2)cc1C1=C(O)CC(C2CCOCC2)CC1=O (stereo not drawn) [Compound T9] | 60 | 100 | 100 | 60 | 80 | 100 | 70 | 80 | 100 | 80 | 90 | 100 | – | – | – | – | – | –
CCc1cc(C)cc(C)c1C1=C(O)CC(C2CCOC2)CC1=O (stereo not drawn) [Compound T11] | 70 | 100 | 80 | 80 | 100 | 100 | 90 | 100 | 90 | 90 | 100 | 100 | – | – | – | – | – | –
CC(=O)OC1=C(c2c(C)cc(C)cc2C)C(=O)CC(C2CCOC2)C1 (stereo not drawn) [Compound P1, 3-oxo-5-(tetrahydrofuran-3-yl)-2-(2,4,6-trimethylphenyl)cyclohex-1-enyl acetate] | 20 | 0 | 70 | 60 | 60 | 30 | 20 | 70 | 80 | 80 | 80 | 70 | – | – | – | – | – | –
Cc1cc(C)c(C2=C(O)CC(C3CCOCC3)CC2=O)c(C)c1 (stereo not drawn) [Compound T3] | 90 | 60 | 100 | 90 | 100 | 100 | 90 | 90 | 100 | 100 | 80 | 100 | – | – | – | – | – | –
Cc1cc(C)c(C2=C(O)CC(C3CCOC3)CC2=O)c(C)c1 (stereo not drawn) [Compound T10] | 50 | 70 | – | 90 | 80 | 80 | 60 | 80 | 80 | 80 | 90 | 90 | – | – | – | – | – | –
